# Source: patent US20260144783A1, “COMPOSITION FOR PREVENTING OR TREATING PERIPHERAL NEUROPATHY, CONTAINING ISOQUINOLINE DERIVATIVE AS ACTIVE INGREDIENT” (ALTMEDICAL CO., LTD., priority 2022, published 2026)
# What was measured:
# SH-SY5Y cell line = assay: mitophagy activity, mt-Keima, flow cytometry (FACS); type: cell-based, human; conditions: SH-SY5Y expressing mt-Keima
# Protocol: (§1) It was confirmed whether CD1-012 synthesized in Example 1 increases mitophagy activity in various cell lines. To this end, CD1-012 and Comparative Example 1 (CCCP) were treated in the SH-SY5Y cell line, a human neuroblastoma cell line expressing mt-Keima fluorescent protein, and in the HeLa-Parkin cell line, a HeLa cervical cancer cell line expressing Parkin (E3 ligase). Following this treatment, the mitophagy activity of each sample was analyzed using flow cytometry (FACS), and the results are shown in FIGS. 2A to 2B.
# HeLa-Parkin cell line = assay: mitophagy activity, flow cytometry (FACS); type: cell-based
# Protocol: as §1
# BEAS-2B cell line = assay: autophagy activity, Keima fluorescent protein, confocal microscope; type: cell-based, human; conditions: 15 μM 18 h, BEAS-2B expressing Keima, FIG. 4B
# Protocol: It was confirmed whether CD1-012 synthesized in Example 1 specifically increases only mitophagy activity. To this end, the BEAS-2B cell line expressing mt-Keima was treated with CD1-012 (15 μM) or Comparative Example 1 (CCCP, 10 μM) for 18 hours, and mitophagy activity was analyzed using a confocal microscope. Additionally, to measure autophagy activity, the BEAS-2B cell line expressing Keima fluorescent protein was incubated in Hanks' balanced salt solution (HBSS) for 3 hours to induce a starvation condition (starv.), and the results were compared with samples treated with CD1-012 (15 μM) for 18 hours using a confocal microscope.
# [1] = system: mitochondrial membrane potential; assay: TMRM assay; type: cell-based; conditions: CD1-012 10 μM or 15 μM, CCCP 10 μM, 24 hours
# Protocol: It was confirmed whether the isoquinoline derivative according to the present invention induces mitochondrial dysfunction, similar to CCCP. To this end, the CD1-012 (10 μM or 15 μM) and CCCP (10 μM) were treated for 24 hours, and the mitochondrial membrane potential and mitochondrial reactive oxygen species (ROS) levels in each sample were analyzed. Mitochondrial membrane potential was analyzed using the TMRM (tetramethylrhodamine methyl ester) assay, and mitochondrial ROS levels were analyzed using the MitoSOX assay.
# [2] = system: third-instar larvae of Drosophila (w1118); type: in vivo
# Protocol: To this end, thermal sensitivity was measured in a Drosophila model of paclitaxel-induced peripheral neuropathy. […] As a result, after treatment with paclitaxel, hyperalgesia was observed, as indicated by a 35% reduction in withdrawal latency from 6.9 seconds to 4.5 seconds (FIG. 8A). Subsequently, to confirm the therapeutic effect of CD1-012 on peripheral neuropathy, Drosophila were treated with CD1-012 at a concentration of 1 mM along with paclitaxel (20 μM).
# (§2) Subsequently, to understand the molecular mechanism underlying the therapeutic effect of CD1-012 on chemotherapy-induced peripheral neuropathy, the therapeutic effect of CD1-012 was examined after suppressing the expression of ULK1 or Rap9, which are essential genes in the recently identified alternative mitophagy pathway. To this end, a heat probe assay was performed using a 40° C. thermal probe after co-treating paclitaxel (20 μM) and CD1-012 (1 mM) in Drosophila expressing shULK1 or shRap9 in C4da sensory neurons, as well as in control Drosophila (wild-type). As a result, in the control group, the peripheral neuropathy symptoms (reduction in withdrawal latency) induced by paclitaxel were recovered by CD1-012 treatment.
# Drosophila larvae = assay: larval size after treatment; type: in vivo; conditions: in vivo
# Protocol: In addition, to evaluate whether the compound according to the present invention affects the growth of Drosophila, the size of larvae was measured after treatment with paclitaxel and CD1-012.
# [3] = system: C4da sensory neurons (ppk1a>CD4-tdTom Drosophila); assay: morphology of dendritic branches of C4da sensory neurons; type: in vivo; conditions: CD1-012 co-administered with paclitaxel
# Text: To analyze the morphological changes in the dendritic branches of C4da sensory neurons, transgenic Drosophila expressing the fluorescent protein CD4-tdTomato specifically in C4da neurons (ppk^1a>CD4-tdTom) was generated. After treatment of the transgenic flies with paclitaxel and CD1-012, morphological changes in the dendritic branches of C4da sensory neurons were examined. As a result, treatment with paclitaxel increased the total dendrite length and the number of dendritic branches by 22% and 33%, respectively, confirming that morphological changes in the sensory neurons were induced.
# [4] = system: Drosophila expressing shATG5 in C4da sensory neurons; assay: heat probe assay, ATG5 suppressed; type: in vivo; conditions: ATG5 expression suppressed; paclitaxel 20 μM and CD1-012 1 mM, 40° C. probe
# Protocol: In this example, an experiment was conducted to verify the therapeutic mechanism of the compound according to the present invention on peripheral neuropathy, particularly chemotherapy-induced peripheral neuropathy. To this end, the therapeutic effect of CD1-012 on peripheral neuropathy was evaluated using animal models in which the expression of ATG5 or ATG7, essential genes in the canonical mitophagy pathway, the most representative mitophagy regulatory pathway, was suppressed. Specifically, paclitaxel (20 μM) and CD1-012 (1 mM) were co-administered to Drosophila expressing shATG7 or shATG5 in C4da sensory neurons, as well as to control flies (wild-type), and a heat probe assay was conducted using a 40° C. thermal probe.
# [5] = system: Drosophila expressing shULK1 in C4da sensory neurons; assay: heat probe assay, ULK1 suppressed; type: in vivo; conditions: ULK1 expression suppressed; paclitaxel 20 μM and CD1-012 1 mM
# Protocol: as §2
smiles,measurement,setting,value
"Oc1cc2c(cc1O)-c1cc3ccc(O)c(O)c3c[n+]1CC2 [CD1-012, 2,3,9,10-tetrahydroxy-5,6-dihydroisoquinolino[3,2-a]isoquinolin-7-ium bromide]",mitophagy activity compared to the control group (Con),SH-SY5Y cell line,significantly increased
same,mitophagy activity compared to the control group (Con),HeLa-Parkin cell line,significantly increased
same,autophagy activity compared to the untreated control group,BEAS-2B cell line,no significant difference
same,mitochondrial membrane potential,[1],no decrease
same,withdrawal latency as percent of the wild-type level,[2]; CD1-012 1 mM along with paclitaxel 20 μM,91%
same,withdrawal latency,"[2]; CD1-012 1 mM along with paclitaxel 20 μM, heat probe 40° C., paclitaxel alone 4.5 seconds",6.3 s
same,peripheral neuropathy symptoms (reduction in withdrawal latency) induced by paclitaxel,"[2]; control Drosophila (wild-type), paclitaxel 20 μM and CD1-012 1 mM, 40° C. probe",recovered
same,reduction in larval size compared to the untreated control group,Drosophila larvae,~10%
same,paclitaxel-induced increase in dendrite length,[3],significantly suppressed
same,paclitaxel-induced increase in number of branches,[3],significantly suppressed
same,therapeutic effect on chemotherapy-induced peripheral neuropathy (withdrawal latency),[4],similarly observed
same,therapeutic effect on paclitaxel-induced peripheral neuropathy (withdrawal latency),[5],completely abolished
